Laboratory results: patent US6306854A, “Chemical compounds” (Glaxosmithkline, priority 1998, dated 2001)

What was measured:
hPPAR alpha = test: Binding Assay (displacement of Radioligand from GST-hPPAR alpha); set-up: species or system human; settings: 60 nM Radioligand
Text: Bound radioactivity eluted in the column void volume and was quantitated by liquid scintillation counting.

[1] = tested on: PPAR alpha over PPAR gamma; test: Transfection assay, selectivity for PPAR alpha over PPAR gamma (GAL4-hPPAR alpha and GAL4-hPPAR gamma); assay type: cell-based, human; settings: CV-1 cells
Method: Plasmids: GAL4-hPPAR alpha chimera and UAS-tk-SPAP reporters.
Transfection assay: SPAP reporter. CV-1 cells were plated in DME medium supplemented with 10% delipidated fetal calf serum at a density of 2.4×10^4 cells per well in a 96-well plate (Costar) 16-24 h before transfection. In general, 8.0 ng of reporter plasmid, 25.0 ng of β-galactosidase expression vector (pCH 110, Pharamacia), and 2.0 ng of GAL4-hPPAR alpha or GAL4-hPPAR gamma expression vector were mixed with carrier DNA (pBluescript, Stratagene) to a total of 80 ng of DNA per well in a volume of […] optiMEM I medium (Life Technologies). To this, a second mix, containing […] optiMEM I medium and […] of LIPOFECTAMINE™ (Life Technologies), was added. After 30 min. an additional […] of optiMEM I medium were added and the combined mix was then applied to the cells. […] Alternatively, alkaline phosphatse and β-galactosidase activities were measured separately using standard protocols. Briefly, cells were lysed by adding […] 0.5% Triton X-100 to the supernatant.

Zucker lean male rats = test: Diet-Induced Model of Dyslipidemia, Zucker lean male rats; assay type: in vivo, rat; settings: males; for NEFA: before drug 0.72
Text: (§1) Zucker lean male rats and Zucker fa/fa female rats were randomized into 3 treatment groups. The randomization was based on serum triglyceride concentration after three months on the TEKLAD high fat diet. Dosing with Example 5 or the appropriate vehicle, by oral gavage, began after 4 months of high fat feeding. Plasma glucose, lactate, serum insulin and lipid concentrations were obtained weekly, beginning on day 7 through 48 after the initiation of therapy. Metabolic data from each treatment group was collected weekly. Dexascan determinations of body mass composition obtained after 4 months on the high fat diet served as baseline. Changes in body mass composition due to therapy were determined by repeat measurements at the end of the study.
(§2) Treatment Group B Example 5 (0.1 mg/kg) dosed twice a day.
(§3) Treatment Group C Example 5 (0.3 mg/kg) dosed twice a day.

Zucker fa/fa female rats = test: Diet-Induced Model of Dyslipidemia, Zucker fa/fa female rats; assay type: in vivo, rat; settings: females
Text: as §1, §2, §3

CCCCCCCN(CCc1ccc(OC(C)(CC)C(=O)O)cc1)C(=O)Nc1ccc(F)cc1F (centres unmarked) [Cold Radioligand, 2-(4-(2-(1-Heptyl-3-(2,4-difluorophenyl)ureido)ethyl)phenoxy)-2-methylbutanoic Acid] was tested, and the “Bound radioactivity in presence of competitor” value (hPPAR alpha; 10 μM competitor, 4° C., 2-3 hr, mean of triplicate, no competitor 140000) was 25000 dpm.
For CC(C)(Sc1ccc(CCN(CCCCC2CCCCC2)C(=O)NC2CCCCC2)cc1)C(=O)O [Example 1, 2-(4-(2-(1-(Cyclohexanebutyl)-3-cyclohexylureido)ethyl)phenylthio)-2-methylpropionic Acid], the “activity ratio, PPAR alpha over PPAR gamma” value (shortened to “activity ratio, PPAR alpha”) [1] was “greater than 100”.
For CC(C)(Sc1ccc(CCN(CCc2ccc(-c3ccccc3)cc2)C(=O)NC2CCCCC2)cc1)C(=O)O [Example 2, 2-(4-(2-(1-(4-Biphenylethyl)-3-cyclohexylureido)ethyl)phenylthio)-2-methylpropionic Acid], the “activity ratio, PPAR alpha” value [1] was “greater than 100”.
For CC(C)(Sc1ccc(CCN(Cc2ccc(-c3ccccc3C(F)(F)F)cc2Cl)C(=O)NC2CCCCC2)cc1)C(=O)O [Example 3, 2-(4-(2-(1-(2-Chloro-4-(2-trifluoromethylphenyl)phenylmethyl)-3-(cyclohexyl)ureido)ethyl)phenylthio)-2-methylpropionic Acid], the “activity ratio, PPAR alpha” value [1] was “greater than 100”.
In the case of CCCCCCCN(CCc1ccc(SC(C)(C)C(=O)O)cc1)C(=O)Nc1ccc(F)cc1F [Example 5, 2-(4-(2-(1-Heptyl-3-(2,4-difluorophenyl)ureido)ethyl)phenylthio)-2-methylpropionic Acid], the NEFA (Zucker lean male rats; 0.1 mg/kg oral gavage twice a day, Week 1, vehicle 0.85) is reported as 0.73 m Eq/L, the Cholesterol (Zucker lean male rats; 0.1 mg/kg oral gavage twice a day, Week 1, before drug 221, vehicle 191) is reported as 138 mg/dL and the “Body Weight” value (Zucker lean male rats; 0.1 mg/kg oral gavage twice a day, Week 1, before drug 636, vehicle 610) is reported as 617 g. For the same compound, the Triglycerides (Zucker lean male rats; 0.1 mg/kg oral gavage twice a day, Week 1, before drug (after 4 months on high-fat diet) 828, vehicle 718) was 460 mg/dL, the NEFA (Zucker lean male rats; 0.1 mg/kg oral gavage twice a day, Week 4, vehicle 0.65) was 0.57 m Eq/L and the Cholesterol (Zucker lean male rats; 0.1 mg/kg oral gavage twice a day, Week 4, before drug 221, vehicle 224) was 189 mg/dL. The “Body Weight” value (Zucker lean male rats; 0.1 mg/kg oral gavage twice a day, Week 4, before drug 636, vehicle 610) was 592 g, the Triglycerides (Zucker lean male rats; 0.1 mg/kg oral gavage twice a day, Week 4, before drug 828, vehicle 741) was 467 mg/dL and the NEFA (Zucker lean male rats; 0.1 mg/kg oral gavage twice a day, Week 7, vehicle 0.60) was 0.58 m Eq/L. The Cholesterol (Zucker lean male rats; 0.1 mg/kg oral gavage twice a day, Week 7, before drug 221, vehicle 215) was 148 mg/dL, the “Body Weight” value (Zucker lean male rats; 0.1 mg/kg oral gavage twice a day, Week 7, before drug 636, vehicle 632) was 597 g and the Triglycerides (Zucker lean male rats; 0.1 mg/kg oral gavage twice a day, Week 7, before drug 828, vehicle 725) was 584 mg/dL. For the same compound, the NEFA (Zucker lean male rats; 0.3 mg/kg oral gavage twice a day, Week 1, vehicle 0.85) was 0.69 m Eq/L, the Cholesterol (Zucker lean male rats; 0.3 mg/kg oral gavage twice a day, Week 1, before drug 235, vehicle 191) was 138 mg/dL and the “Body Weight” value (Zucker lean male rats; 0.3 mg/kg oral gavage twice a day, Week 1, before drug 639, vehicle 610) was 608 g. For the same compound, the Triglycerides (Zucker lean male rats; 0.3 mg/kg oral gavage twice a day, Week 1, before drug 926, vehicle 718) was 527 mg/dL, the NEFA (Zucker lean male rats; 0.3 mg/kg oral gavage twice a day, Week 4, vehicle 0.65) was 0.47 m Eq/L and the Cholesterol (Zucker lean male rats; 0.3 mg/kg oral gavage twice a day, Week 4, before drug 235, vehicle 224) was 174 mg/dL. The “Body Weight” value (Zucker lean male rats; 0.3 mg/kg oral gavage twice a day, Week 4, before drug 639, vehicle 610) was 577 g, the Triglycerides (Zucker lean male rats; 0.3 mg/kg oral gavage twice a day, Week 4, before drug 926, vehicle 741) was 174 mg/dL and the NEFA (Zucker lean male rats; 0.3 mg/kg oral gavage twice a day, Week 7, vehicle 0.60) was 0.46 m Eq/L. The Cholesterol (Zucker lean male rats; 0.3 mg/kg oral gavage twice a day, Week 7, before drug 235, vehicle 215) was 151 mg/dL, the “Body Weight” value (Zucker lean male rats; 0.3 mg/kg oral gavage twice a day, Week 7, before drug 639, vehicle 632) was 565 g and the Triglycerides (Zucker lean male rats; 0.3 mg/kg oral gavage twice a day, Week 7, before drug 926, vehicle 725) was 219 mg/dL. The NEFA (Zucker fa/fa female rats; 0.1 mg/kg oral gavage twice a day, Week 1, before drug 11.15, vehicle 6.78) was 2.47 m Eq/L, the “Body Weight” value (Zucker fa/fa female rats; 0.1 mg/kg oral gavage twice a day, Week 1, before drug 665, vehicle 684) was 721 g and the Cholesterol (Zucker fa/fa female rats; 0.1 mg/kg oral gavage twice a day, Week 1, before drug 1648, vehicle 1186) was 610 mg/dL. For the same compound, the Triglycerides (Zucker fa/fa female rats; 0.1 mg/kg oral gavage twice a day, Week 1, before drug (after 4 months on high-fat diet) 9310, vehicle 5357) was 2717 mg/dL, the NEFA (Zucker fa/fa female rats; 0.1 mg/kg oral gavage twice a day, Week 4, before drug 11.15, vehicle 2.79) was 1.32 m Eq/L and the “Body Weight” value (Zucker fa/fa female rats; 0.1 mg/kg oral gavage twice a day, Week 4, before drug 665, vehicle 700) was 723 g. For the same compound, the Cholesterol (Zucker fa/fa female rats; 0.1 mg/kg oral gavage twice a day, Week 4, before drug 1648, vehicle 1319) was 733 mg/dL, the Triglycerides (Zucker fa/fa female rats; 0.1 mg/kg oral gavage twice a day, Week 4, before drug 9310, vehicle 10414) was 3913 mg/dL and the NEFA (Zucker fa/fa female rats; 0.1 mg/kg oral gavage twice a day, Week 7, before drug 11.15, vehicle 3.77) was 1.75 m Eq/L. For the same compound, the “Body Weight” value (Zucker fa/fa female rats; 0.1 mg/kg oral gavage twice a day, Week 7, before drug 665, vehicle 706) was 710 g, the Cholesterol (Zucker fa/fa female rats; 0.1 mg/kg oral gavage twice a day, Week 7, before drug 1648, vehicle 923) was 632 mg/dL and the Triglycerides (Zucker fa/fa female rats; 0.1 mg/kg oral gavage twice a day, Week 7, before drug 9310, vehicle 5465) was 2627 mg/dL. For the same compound, the NEFA (Zucker fa/fa female rats; 0.3 mg/kg oral gavage twice a day, Week 1, before drug 13.06, vehicle 6.78) was 1.45 m Eq/L, the “Body Weight” value (Zucker fa/fa female rats; 0.3 mg/kg oral gavage twice a day, Week 1, before drug 645, vehicle 684) was 673 g and the Cholesterol (Zucker fa/fa female rats; 0.3 mg/kg oral gavage twice a day, Week 1, before drug 1908, vehicle 1186) was 350 mg/dL. The Triglycerides (Zucker fa/fa female rats; 0.3 mg/kg oral gavage twice a day, Week 1, before drug 9190, vehicle 5357) was 1627 mg/dL, the NEFA (Zucker fa/fa female rats; 0.3 mg/kg oral gavage twice a day, Week 4, before drug 13.06, vehicle 2.79) was 0.59 m Eq/L and the “Body Weight” value (Zucker fa/fa female rats; 0.3 mg/kg oral gavage twice a day, Week 4, before drug 645, vehicle 700) was 643 g. For the same compound, the Cholesterol (Zucker fa/fa female rats; 0.3 mg/kg oral gavage twice a day, Week 4, before drug 1908, vehicle 1319) was 404 mg/dL, the Triglycerides (Zucker fa/fa female rats; 0.3 mg/kg oral gavage twice a day, Week 4, before drug 9190, vehicle 10414) was 687 mg/dL and the NEFA (Zucker fa/fa female rats; 0.3 mg/kg oral gavage twice a day, Week 7, before drug 13.06, vehicle 3.77) was 0.53 m Eq/L. For the same compound, the “Body Weight” value (Zucker fa/fa female rats; 0.3 mg/kg oral gavage twice a day, Week 7, before drug 645, vehicle 706) was 582 g, the Cholesterol (Zucker fa/fa female rats; 0.3 mg/kg oral gavage twice a day, Week 7, before drug 1908, vehicle 923) was 422 mg/dL and the Triglycerides (Zucker fa/fa female rats; 0.3 mg/kg oral gavage twice a day, Week 7, before drug 9190, vehicle 5465) was 538 mg/dL.
For [3H]C(CCCC)C([3H])CN(CCc1ccc(OC(C)(CC)C(=O)O)cc1)C(=O)Nc1ccc(F)cc1F (centres unmarked) [Radioligand, 2-(4-(2-(2,3-Ditritio-1-heptyl-3-(2,4-difluorophenyl)ureido)ethyl)phenoxy)-2-methylbutanoic Acid], the “Specific Binding” value (hPPAR alpha; no competitor minus 10 μM Cold Radioligand) was 115000 dpm.
